Columns and labels:
[1] = target: T1, COS-7/AMY3 (human calcitonin receptor (CTR) and RAMP3) (Homo sapiens, UniProt O60896+P30988); experiment: Amylin Receptor cAMP Assay II; format: cell-based; details: values marked **: Amylin Receptor cAMP Assay II; COS-7/AMY3 cells, cAMP dynamic 2 kit, 30 min; read-out: Amylin Receptor cAMP Stimulation Activity: EC50
T1 construct: expressed in transfected cells; host or cells: COS-7
Procedure, shortened: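 COS-7 cells stably co-expressing human CTR and RAMP3 (AMY3), 2000 cells/well in HBSS with 20 mM HEPES, 0.5 mM IBMX, 0.1% casein, stimulated with compound for 30 min at 37 °C. cAMP measured by HTRF (665/615 nm), activity normalized between vehicle and maximal control.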

[2] = target: T2, human calcitonin receptor (CTR) (Homo sapiens, UniProt P30988); experiment: Calcitonin Receptor (CTR) cAMP Assay; format: cell-based; details: COS7-human CTR Clone #2 stable cell line, cAMP dynamic 2 kit, 30 min; read-out: Calcitonin Receptor cAMP Stimulation Activity: EC50
T2 construct: expressed in transfected cells; host or cells: COS-7 (COS7-human CTR Clone #2)
T2 sequence (P30988 25-474): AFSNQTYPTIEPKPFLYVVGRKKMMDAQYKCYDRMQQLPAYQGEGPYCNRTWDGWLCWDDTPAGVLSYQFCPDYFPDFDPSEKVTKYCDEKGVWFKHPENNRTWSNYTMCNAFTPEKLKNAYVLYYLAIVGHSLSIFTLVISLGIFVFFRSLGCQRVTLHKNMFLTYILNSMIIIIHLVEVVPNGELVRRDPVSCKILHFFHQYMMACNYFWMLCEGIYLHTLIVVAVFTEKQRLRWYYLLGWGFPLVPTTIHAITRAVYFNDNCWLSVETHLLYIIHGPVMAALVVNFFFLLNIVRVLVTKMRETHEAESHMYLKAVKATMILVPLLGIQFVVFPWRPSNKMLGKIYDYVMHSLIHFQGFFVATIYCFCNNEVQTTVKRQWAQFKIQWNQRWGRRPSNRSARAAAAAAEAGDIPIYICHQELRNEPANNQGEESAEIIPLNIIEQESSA
Procedure, shortened: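 COS-7 cells stably expressing human CTR (2000 cells/well) were incubated 30 min at 37 °C with 4-fold serially diluted compound in HBSS/20 mM HEPES/0.5 mM IBMX/0.1% casein. cAMP was detected by HTRF (665/615 nm) after 1 h at RT. % activity was normalised to vehicle and positive controls.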

T1 sequence (O60896 24-148, one chain of several): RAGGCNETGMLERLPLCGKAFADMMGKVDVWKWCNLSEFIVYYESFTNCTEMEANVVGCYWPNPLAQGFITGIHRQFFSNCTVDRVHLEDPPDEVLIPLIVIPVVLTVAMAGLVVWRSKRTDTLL

EC50 [1]	EC50 [2]	SMILES
50.7 nM	0.702 nM	COc1cccc2c1CC[C@H]2Nc1nccc2cc(-c3c4c(nc(C[C@H]5CCc6cc(F)ccc65)c3-c3n[nH]c(=O)o3)[C@@H]3CCCN3C4=O)sc12 [Compound 224, 5-((S)-2-(((R)-5-fluoro-2,3-dihydro-1H-inden-1-yl)methyl)-4-(7-(((R)-4-methoxy-2,3-dihydro-1H-inden-1-yl)amino)thieno[2,3-c]pyridin-2-yl)-5-oxo-7,8,9,9a-tetrahydro-5H-pyrido[2,3-a]pyrrolizin-3-yl)-1,3,4-oxadiazol-2(3H)-one]
14.6 nM	0.836 nM	COc1cccc2c1CC[C@H]2Nc1nccc2cc(-c3c4c(nc(CCc5ccc(F)cc5)c3-c3n[nH]c(=O)s3)[C@@H]3CCCN3C4=O)sc12 [Compound 225, 5-((S)-2-(4-fluorophenethyl)-4-(7-(((R)-4-methoxy-2,3-dihydro-1H-inden-1-yl)amino)thieno[2,3-c]pyridin-2-yl)-5-oxo-7,8,9,9a-tetrahydro-5H-pyrido[2,3-a]pyrrolizin-3-yl)-1,3,4-thiadiazol-2(3H)-one]
14.2 nM	1.08 nM	O=C1c2c(nc(CCc3ccc(F)cc3)c(-c3n[nH]c(=O)o3)c2-c2cc3ccnc(N[C@@H]4CCc5ccccc54)c3s2)[C@@H]2CCCN12 [Compound 226, 5-((S)-4-(7-(((R)-2,3-dihydro-1H-inden-1-yl)amino)thieno[2,3-c]pyridin-2-yl)-2-(4-fluorophenethyl)-5-oxo-7,8,9,9a-tetrahydro-5H-pyrido[2,3-a]pyrrolizin-3-yl)-1,3,4-oxadiazol-2(3H)-one]
33.3 nM	1.67 nM	C[C@@H](Nc1nccc2cc(-c3c4c(nc(CCc5ccc(F)cc5)c3-c3n[nH]c(=O)o3)[C@@H]3CCCN3C4=O)sc12)c1ccc(F)c(F)c1 [Compound 227, 5-((S)-4-(7-(((R)-1-(3,4-difluorophenyl)ethyl)amino)thieno[2,3-c]pyridin-2-yl)-2-(4-fluorophenethyl)-5-oxo-7,8,9,9a-tetrahydro-5H-pyrido[2,3-a]pyrrolizin-3-yl)-1,3,4-oxadiazol-2(3H)-one]
3030 nM	25.7 nM	C[C@@H](Nc1nccc2cc(-c3c4c(nc(CCc5ccc(F)cc5)c3-c3n[nH]c(=O)o3)[C@@H]3CCCN3C4=O)sc12)c1ccc(F)cc1F [Compound 228, 5-((S)-4-(7-(((R)-1-(2,4-difluorophenyl)ethyl)amino)thieno[2,3-c]pyridin-2-yl)-2-(4-fluorophenethyl)-5-oxo-7,8,9,9a-tetrahydro-5H-pyrido[2,3-a]pyrrolizin-3-yl)-1,3,4-oxadiazol-2(3H)-one]
48.4 nM	13.4 nM	COc1cccc2c1CC[C@H]2Nc1nccc2cc(-c3c4c(nc(CCc5ccc(F)cc5)c3-c3n[nH]c(=O)o3)[C@H]3CCCN3C4=O)sc12 [Compound 229, 5-((R)-2-(4-fluorophenethyl)-4-(7-(((R)-4-methoxy-2,3-dihydro-1H-inden-1-yl)amino)thieno[2,3-c]pyridin-2-yl)-5-oxo-7,8,9,9a-tetrahydro-5H-pyrido[2,3-a]pyrrolizin-3-yl)-1,3,4-oxadiazol-2(3H)-one]
17.4 nM	0.51 nM	COc1cccc2c1CC[C@H]2Nc1nccc2cc(-c3c4c(nc(CCc5ccc(F)cc5)c3-c3n[nH]c(=O)o3)[C@@H]3CCCN3C4=O)sc12 [Compound 230, 5-((S)-2-(4-fluorophenethyl)-4-(7-(((R)-4-methoxy-2,3-dihydro-1H-inden-1-yl)amino)thieno[2,3-c]pyridin-2-yl)-5-oxo-7,8,9,9a-tetrahydro-5H-pyrido[2,3-a]pyrrolizin-3-yl)-1,3,4-oxadiazol-2(3H)-one]
15300 nM	171 nM	N#Cc1ccc(Cn2ccc3cc(-c4c5c(nc(CCC67CCC(CC6)OC7)c4-c4n[nH]c(=O)o4)[C@@H]4CCCN4C5=O)cnc32)c(F)c1 [Compound 231, (S)-4-((5-(2-(2-(2-oxabicyclo[2.2.2]octan-4-yl)ethyl)-5-oxo-3-(5-oxo-4,5-dihydro-1,3,4-oxadiazol-2-yl)-7,8,9,9a-tetrahydro-5H-pyrido[2,3-a]pyrrolizin-4-yl)-1H-pyrrolo[2,3-b]pyridin-1-yl)methyl)-3-fluorobenzonitrile]
12000 nM	412 nM	O=C1c2c(nc(CCC34CCC(CC3)OC4)c(-c3n[nH]c(=O)o3)c2-c2cnc3c(ccn3Cc3ccc(F)cn3)c2)[C@@H]2CCCN12 [Compound 232, (S)-5-(2-(2-(2-oxabicyclo[2.2.2]octan-4-yl)ethyl)-4-(1-((5-fluoropyridin-2-yl)methyl)-1H-pyrrolo[2,3-b]pyridin-5-yl)-5-oxo-7,8,9,9a-tetrahydro-5H-pyrido[2,3-a]pyrrolizin-3-yl)-1,3,4-oxadiazol-2(3H)-one]
1820 nM	36.3 nM	O=C1c2c(nc(CCC34CCC(CC3)OC4)c(-c3n[nH]c(=O)o3)c2-c2cnc3c(ccn3Cc3ncc(Cl)cc3F)c2)[C@@H]2CCCN12 [Compound 233, (S)-5-(2-(2-(2-oxabicyclo[2.2.2]octan-4-yl)ethyl)-4-(1-((5-chloro-3-fluoropyridin-2-yl)methyl)-1H-pyrrolo[2,3-b]pyridin-5-yl)-5-oxo-7,8,9,9a-tetrahydro-5H-pyrido[2,3-a]pyrrolizin-3-yl)-1,3,4-oxadiazol-2(3H)-one]
48.1 nM	1.83 nM	COc1cccc2c1CC[C@H]2Nc1nccc2cc(-c3c4c(nc(CCc5ccc(F)cc5)c3-c3n[nH]c(=O)o3)[C@H]3COCCN3C4=O)sc12 [Compound 234, (S)-2-(4-fluorophenethyl)-4-(7-(((R)-4-methoxy-2,3-dihydro-1H-inden-1-yl)amino)thieno[2,3-c]pyridin-2-yl)-3-(5-oxo-4,5-dihydro-1,3,4-oxadiazol-2-yl)-7,8,10,10a-tetrahydro-5H-pyrido[2′,3′:3,4]pyrrolo[2,1-c][1,4]oxazin-5-one]
18.1 nM	0.236 nM	COc1cccc2c1CC[C@H]2Nc1nccc2cc(-c3c4c(nc(CCc5ccc(F)cc5)c3-c3n[nH]c(=O)o3)[C@@H]3COCCN3C4=O)sc12 [Compound 235, (R)-2-(4-fluorophenethyl)-4-(7-(((R)-4-methoxy-2,3-dihydro-1H-inden-1-yl)amino)thieno[2,3-c]pyridin-2-yl)-3-(5-oxo-4,5-dihydro-1,3,4-oxadiazol-2-yl)-7,8,10,10a-tetrahydro-5H-pyrido[2′,3′:3,4]pyrrolo[2,1-c][1,4]oxazin-5-one]
128 nM	177 nM	COc1cccc2c1CC[C@H]2Nc1nccc2cc(-c3c(-c4n[nH]c(=O)o4)c(CCc4ccc(F)cc4)nc4c3S(=O)(=O)C[C@@H]4C(C)C)sc12 [Compound 236, 5-((R)-5-(4-fluorophenethyl)-3-isopropyl-7-(7-(((R)-4-methoxy-2,3-dihydro-1H-inden-1-yl)amino)thieno[2,3-c]pyridin-2-yl)-1,1-dioxido-2,3-dihydrothieno[3,2-b]pyridin-6-yl)-1,3,4-oxadiazol-2(3H)-one]
18.5 nM	0.591 nM	COc1cccc2c1CC[C@H]2Nc1nccc2cc(-c3c(-c4n[nH]c(=O)o4)c(CCc4ccc(F)cc4)nc4c3S(=O)(=O)C[C@H]4C(C)C)sc12 [Compound 237, 5-((S)-5-(4-fluorophenethyl)-3-isopropyl-7-(7-(((R)-4-methoxy-2,3-dihydro-1H-inden-1-yl)amino)thieno[2,3-c]pyridin-2-yl)-1,1-dioxido-2,3-dihydrothieno[3,2-b]pyridin-6-yl)-1,3,4-oxadiazol-2(3H)-one]
75.7 nM	5.12 nM	N#Cc1ccc(Cn2c(=O)oc3cc(-c4c(-c5n[nH]c(=O)o5)c(CCc5ccc(F)cc5)nc5c4S(=O)(=O)CC54CC4)ccc32)nc1 [Compound 238, 6-((6-(5′-(4-fluorophenethyl)-1′,1′-dioxido-6′-(5-oxo-4,5-dihydro-1,3,4-oxadiazol-2-yl)-2′H-spiro[cyclopropane-1,3′-thieno[3,2-b]pyridin]-7′-yl)-2-oxobenzo[d]oxazol-3(2H)-yl)methyl)nicotinonitrile]
23.4 nM	0.975 nM	COc1cc(Cl)cc2c1CC[C@H]2Nc1nccc2cc(-c3c4c(nc(CCc5ccc(F)cc5)c3-c3n[nH]c(=O)o3)[C@@H]3CCCN3C4=O)sc12 [Compound 239, 5-((S)-4-(7-(((R)-6-chloro-4-methoxy-2,3-dihydro-1H-inden-1-yl)amino)thieno[2,3-c]pyridin-2-yl)-2-(4-fluorophenethyl)-5-oxo-7,8,9,9a-tetrahydro-5H-pyrido[2,3-a]pyrrolizin-3-yl)-1,3,4-oxadiazol-2(3H)-one]
